Experimental data from patent publication US9604996B2 (Bayer Pharma Aktiengesellschaft, priority 2013, dated 2017).
pIC50: −log10 of the molar value.

The compounds below were run against T1, human adenosine A2b receptor (Homo sapiens, UniProt P29275) (assay: Cellular reporter gene (CRE-luciferase) A2b receptor antagonist assay in recombinant CHO-K1 cells stimulated with NECA). Conditions: recombinant CHO-K1 cell line, co-incubation with EC50 concentration of NECA, 3 hours, in some cases means, rounded to two significant digits.
T1 construct: expressed in transfected cells; host or cells: CHO-K1 (Chinese Hamster Ovary) with CRE-luciferase reporter
T1 sequence (P29275 1-332): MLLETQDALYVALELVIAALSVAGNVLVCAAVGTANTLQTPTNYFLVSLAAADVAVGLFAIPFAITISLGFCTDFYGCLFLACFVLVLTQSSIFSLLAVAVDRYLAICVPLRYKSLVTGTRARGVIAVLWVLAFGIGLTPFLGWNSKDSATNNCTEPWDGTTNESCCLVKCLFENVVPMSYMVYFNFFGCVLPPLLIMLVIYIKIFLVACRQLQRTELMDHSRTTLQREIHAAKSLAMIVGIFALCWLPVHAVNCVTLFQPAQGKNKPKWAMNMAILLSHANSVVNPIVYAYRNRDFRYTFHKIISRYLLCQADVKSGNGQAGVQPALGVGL
Format: cell-based
Method: B-1. Cellular In Vitro Tests for Determining A2b Receptor Activity and Adenosine Receptor Selectivity
The identification of selective antagonists of the human adenosine A2b receptor and the quantification of the efficacy and selectivity of the compounds according to the invention was carried out with the aid of recombinant cell lines for the human adenosine receptors A1, A2a, A2b and A3. These cell lines were originally derived from an ovarepithelial cell of the hamster (Chinese Hamster Ovary, CHO-K1, American Type Culture Collection, Manassas, Va. 20108, USA). In addition to the respective recombinantly expressed adenosine receptor for testing the efficacy at the A1, A2a and A2b receptors, the cell lines contain a reporter gene construct where expression of the firefly (Photinus pyralis) luciferase is under the control of a promoter which can be activated via intracellular signal cascades by stimulation of the receptors with the (not subtype-selective) adenosine receptor agonist NECA (5′-N-ethylcarboxamidoadenosine) [S. J. Hill, J. G. Baker, S. Rhees, Curr. Opin. Pharmacol. 1, 526-532 (2001)].
In the case of the A2a and A2b cell lines, this is a minimal promoter having a plurality of cAMP-responsive elements (CRE). Stimulation of the Gs coupled A2b or A2a receptors by NECA ultimately leads, via formation of cAMP, to CRE-dependent induction of luciferase expression, which is detected 3 hours after the start of the incubation with NECA using a detection solution in a suitable luminometer. For testing the antagonists, initially, in a pre-experiment, the concentration of NECA which, at the test day in question, results in half-maximum stimulation of luciferase expression (EC50 concentration) is determined By joint incubation of this EC50 concentration of NECA with the substances to be tested, it is possible to determine their antagonistic activity.

| pIC50 | Structure (SMILES) |
| --- | --- |
| 6.21 | COC(Cn1c(=O)c2c(C)c(C(=O)N3CCC(O)(CO)CC3)sc2n(CCC(F)(F)F)c1=O)C(F)(F)F (single isomer, unassigned) [Example 115, 6-{[4-Hydroxy-4-(hydroxymethyl)piperidin-1-yl]carbonyl}-5-methyl-3-(3,3,3-trifluoro-2-methoxypropyl)-1-(3,3,3-trifluoropropyl)thieno[2,3-d]pyrimidine-2,4(1H,3H)-dione] |
| 6.85 | CCn1c(=O)c2c(C)c(C(=O)N3CCC(O)C(O)C3)sc2n(CCC(F)(F)F)c1=O (single isomer, unassigned) [Example 117, 6-[(3,4-Dihydroxypiperidin-1-yl)carbonyl]-3-ethyl-5-methyl-1-(3,3,3-trifluoropropyl)thieno [2,3-d]pyrimidine-2,4(1H,3H)-dione] |
| 6.70 | CCn1c(=O)c2c(C)c(C(=O)N3CCC(O)C(O)C3)sc2n(CCC(F)(F)F)c1=O (single isomer, unassigned) [Example 118, 6-[(3,4-Dihydroxypiperidin-1-yl)carbonyl]-3-ethyl-5-methyl-1-(3,3,3-trifluoropropyl)thieno [2,3-d]pyrimidine-2,4(1H,3H)-dione] |
| 6.89 | CCn1c(=O)c2c(C)c(C(=O)N3CCC(O)C(O)C3)sc2n(CCC(F)(F)F)c1=O (single isomer, unassigned) [Example 120, 6-[(3,4-Dihydroxypiperidin-1-yl)carbonyl]-3-ethyl-5-methyl-1-(3,3,3-trifluoropropyl)thieno [2,3-d]pyrimidine-2,4(1H,3H)-dione] |
| 6.74 | CCn1c(=O)c2c(C)c(C(=O)N3CCC(O)C(O)C3)sc2n(CCC(F)(F)F)c1=O (single isomer, unassigned) [Example 121, 6-[(3,4-Dihydroxypiperidin-1-yl)carbonyl]-3-ethyl-5-methyl-1-(3,3,3-trifluoropropyl)thieno [2,3-d]pyrimidine-2,4(1H,3H)-dione] |
| 7.62 | Cc1c(C(=O)N2CCC(O)CC2)sc2c1c(=O)n(CC(C)(O)c1ccccc1)c(=O)n2CCC(F)(F)F (single isomer, unassigned) [Example 132, 3-(2-Hydroxy-2-phenylpropyl)-6-[(4-hydroxypiperidin-1-yl)carbonyl]-5-methyl-1-(3,3,3-trifluoropropyl)thieno[2,3-d]pyrimidine-2,4(1H,3H)-dione] |
| 6.07 | Cc1c(C(=O)N2CCC(O)CC2)sc2c1c(=O)n(CC(C)(O)c1ccccc1)c(=O)n2CCC(F)(F)F (single isomer, unassigned) [Example 133, 3-(2-Hydroxy-2-phenylpropyl)-6-[(4-hydroxypiperidin-1-yl)carbonyl]-5-methyl-1-(3,3,3-trifluoropropyl)thieno[2,3-d]pyrimidine-2,4(1H,3H)-dione] |
| 6.62 | CCn1c(=O)c2c(C(C)F)c(C(=O)N3CCNC(=O)C3)sc2n(CCC(F)(F)F)c1=O (single isomer, unassigned) [Example 148, 3-Ethyl-5-(1-fluoroethyl)-6-[(3-oxopiperazin-1-yl)carbonyl]-1-(3,3,3-trifluoropropyl)thieno[2,3-d]pyrimidine-2,4(1H,3H)-dione] |
| 6.49 | CCn1c(=O)c2c(C(C)F)c(C(=O)N3CCNC(=O)C3)sc2n(CCC(F)(F)F)c1=O (single isomer, unassigned) [Example 149, 3-Ethyl-5-(1-fluoroethyl)-6-[(3-oxopiperazin-1-yl)carbonyl]-1-(3,3,3-trifluoropropyl)thieno[2,3-d]pyrimidine-2,4(1H,3H)-dione] |
| 8.34 | Cc1c(C(=O)N2CCC(O)CC2)sc2c1c(=O)n(CC(C)c1ccccc1)c(=O)n2CCC(F)(F)F (single isomer, unassigned; enantiomer 1) [Example 44, 6-[(4-Hydroxypiperidin-1-yl)carbonyl]-5-methyl-3-(2-phenylpropyl)-1-(3,3,3-trifluoropropyl)thieno[2,3-d]pyrimidine-2,4(1H,3H)-dione (enantiomer 1)] |
| 7.23 | COC(Cn1c(=O)c2c(C)c(C(=O)N3CCC(O)CC3)sc2n(CCC(F)(F)F)c1=O)c1ccccc1 (single isomer, unassigned; enantiomer 1) [Example 48, 6-[(4-Hydroxypiperidin-1-yl)carbonyl]-3-(2-methoxy-2-phenylethyl)-5-methyl-1-(3,3,3-trifluoropropyl)thieno[2,3-d]pyrimidine-2,4(1H,3H)-dione (enantiomer 1)] |
| 6.82 | Cc1c(C(=O)N2CCC(O)CC2)sc2c1c(=O)n(CC(C)c1ccccc1)c(=O)n2CCC(F)(F)F (single isomer, unassigned; enantiomer 2) [Example 45, 6-[(4-Hydroxypiperidin-1-yl)carbonyl]-5-methyl-3-(2-phenylpropyl)-1-(3,3,3-trifluoropropyl)thieno[2,3-d]pyrimidine-2,4(1H,3H)-dione (enantiomer 2)] |
| 8.36 | COC(Cn1c(=O)c2c(C)c(C(=O)N3CCC(O)CC3)sc2n(CCC(F)(F)F)c1=O)c1ccccc1 (single isomer, unassigned; enantiomer 2) [Example 47, 6-[(4-Hydroxypiperidin-1-yl)carbonyl]-3-(2-methoxy-2-phenylethyl)-5-methyl-1-(3,3,3-trifluoropropyl)thieno[2,3-d]pyrimidine-2,4(1H,3H)-dione (enantiomer 2)] |
| 6.54 | COCCn1c(=O)n(CCc2ccccc2)c(=O)c2c(C)c(C(=O)N3CCC(O)CC3)sc21 [Example 3, 6-[(4-Hydroxypiperidin-1-yl)carbonyl]-1-(2-methoxyethyl)-5-methyl-3-(2-phenylethyl)thieno [2,3-d]pyrimidine-2,4(1H,3H)-dione] |
| 7.28 | Cc1c(C(=O)N2CCC(O)CC2)sc2c1c(=O)n(CCc1ccccc1F)c(=O)n2CCC=C(F)F [Example 5, 1-(4,4-Difluorobut-3-en-1-yl)-3-[2-(2-fluorophenyl)ethyl]-6-[(4-hydroxypiperidin-1-yl)carbonyl]-5-methylthieno[2,3-d]pyrimidine-2,4(1H,3H)-dione] |
| 6.96 | Cc1c(C(=O)N2CCC(O)CC2)sc2c1c(=O)n(CCc1ccccc1Cl)c(=O)n2CCC=C(F)F [Example 7, 3-[2-(2-Chlorophenyl)ethyl]-1-(4,4-difluorobut-3-en-1-yl)-6-[(4-hydroxypiperidin-1-yl)carbonyl]-5-methylthieno[2,3-d]pyrimidine-2,4(1H,3H)-dione] |
| 7.28 | Cc1c(C(=O)N2CCC(O)CC2)sc2c1c(=O)n(CCc1cccc(F)c1)c(=O)n2CCC(F)(F)F [Example 9, 3-[2-(3-Fluorophenyl)ethyl]-6-[(4-hydroxypiperidin-1-yl)carbonyl]-5-methyl-1-(3,3,3-trifluoropropyl)thieno[2,3-d]pyrimidine-2,4(1H,3H)-dione] |
| 6.51 | Cc1c(C(=O)N2CCC(O)CC2)sc2c1c(=O)n(CCc1cccc(Cl)c1)c(=O)n2CCC(F)(F)F [Example 10, 3-[2-(3-Chlorophenyl)ethyl]-6-[(4-hydroxypiperidin-1-yl)carbonyl]-5-methyl-1-(3,3,3-trifluoropropyl)thieno[2,3-d]pyrimidine-2,4(1H,3H)-dione] |
| 6.29 | Cc1cccc(CCn2c(=O)c3c(C)c(C(=O)N4CCC(O)CC4)sc3n(CCC(F)(F)F)c2=O)c1 [Example 11, 6-[(4-Hydroxypiperidin-1-yl)carbonyl]-5-methyl-3-[2-(3-methylphenyl)ethyl]-1-(3,3,3-trifluoropropyl)thieno[2,3-d]pyrimidine-2,4(1H,3H)-dione] |
| 7.19 | Cc1c(C(=O)N2CCC(O)CC2)sc2c1c(=O)n(CCc1ccc(F)cc1)c(=O)n2CCC(F)(F)F [Example 12, 3-[2-(4-Fluorophenyl)ethyl]-6-[(4-hydroxypiperidin-1-yl)carbonyl]-5-methyl-1-(3,3,3-trifluoropropyl)thieno[2,3-d]pyrimidine-2,4(1H,3H)-dione] |
| 7.00 | Cc1c(C(=O)N2CCC(O)CC2)sc2c1c(=O)n(CCc1ccc(Cl)cc1)c(=O)n2CCC(F)(F)F [Example 13, 3-[2-(4-Chlorophenyl)ethyl]-6-[(4-hydroxypiperidin-1-yl)carbonyl]-5-methyl-1-(3,3,3-trifluoropropyl)thieno [2,3-d]pyrimidine-2,4(1H,3H)-dione] |
| 6.72 | COc1ccc(CCn2c(=O)c3c(C)c(C(=O)N4CCC(O)CC4)sc3n(CCC(F)(F)F)c2=O)cc1 [Example 14, 6-[(4-Hydroxypiperidin-1-yl)carbonyl]-3-[2-(4-methoxyphenyl)ethyl]-5-methyl-1-(3,3,3-trifluoropropyl)thieno [2,3-d]pyrimidine-2,4(1H,3H)-dione] |
